Measured values published in PMC4192597, “Antimicrobials, Stress and Mutagenesis” (PLoS Pathogens, 2014).
≈ marks a conversion by molar mass, not a printed value. Read-outs that look alike come from different tables or passages of the source.

How the values were obtained:
[1] = system: E. coli MG1655; assay: Minimal inhibitory concentration (MIC), micro-dilution; type: cell-based, Escherichia coli; conditions: inoculum 2×10^8 cfu/ml, 24 h, liquid MH medium, 37°C
Procedure: E. coli K-12 MG1655 was used for all experiments, grown in liquid Mueller-Hilton (MH) agar or agarose, unless otherwise indicated. All experiments were carried out at 37°C.
MICs were determined according to CLSI recommendations by a micro-dilution method with the exception that the inoculum size that was adjusted to 2×10^8 cfu/ml from a regrowth of overnight cultures to be consistent with the mutagenesis experiments. […] Polypropylene non-binding plates (Th. Geyer, Germany) were used for all experiments.

[2] = system: E. coli MG1655; assay: microbe, parasite or virus in culture; type: cell-based, Escherichia coli; conditions: 4 hours, 50% reduction of CFUs vs control, Mueller Hinton Broth, 37°C, five replicates, repeated twice
Procedure: The MIC50s for all antimicrobials were determined by inoculating strains grown to mid-log phase into the wells of a 96-microwell plate. Approximately 10^2 cells from overnight cultures were inoculated into tubes containing 10 ml of Mueller Hinton Broth medium, and the tubes were incubated at 37°C with strong shaking until the mid-log phase of growth (approximately 10^8 cells/ml). […] The plates were incubated at 37°C for 4 h with continuous shaking in a plate reader (Synergy 2, BioTeK). After four hours, aliquots from wells with OD^600 readings ranging from 10 to 90% values in comparison with the control, were serially diluted in sterile 0.9% NaCl, and incubated during 1 hour to allow the resolution of filaments as consequence of SOS activation, if any. Bacterial suspensions were plated in Mueller Hinton Broth agar plates to estimate the viability as colony forming units (CFUs). Five replicates per concentration were prepared and the experiments were repeated twice.

[3] = system: E. coli stress response genes (strain MG1655); assay: Relative gene expression of stress response genes by quantitative real-time PCR; type: cell-based, Escherichia coli; conditions: qPCR; for Result, cpxA / Result, cpxR / Result, dinB / Result, lexA / Result, marR / Result, oxyR / Result, phoP / Result, phoQ / Expression, cpxA (Envelope stress) / Expression, cpxR (Envelope stress) / Expression, dinB (SOS response) / Expression, lexA (SOS response) / Expression, marR (Independent multiple antibiotic resistance) / Expression, oxyR (Oxidative stress) / Expression, phoP (Envelope stress) / Expression, phoQ (Envelope stress) / Expression, recA (SOS response) / Expression, rpoE (Envelope stress) / Expression, rpoS (Sigma S response) / Expression, umuC (SOS response) / Result, recA / Result, rpoE / Result, rpoS / Result, umuC: 20 minutes exposure vs non-treated bacteria; for Result, cpxA / Result, cpxR / Result, dinB / Result, lexA / Result, marR / Result, oxyR / Result, phoP / Result, phoQ / Result, recA / Result, rpoE / Result, rpoS / Result, umuC: REST 2009 randomisation test; for Expression, cpxA (Envelope stress) / Expression, cpxR (Envelope stress) / Expression, dinB (SOS response) / Expression, lexA (SOS response) / Expression, marR (Independent multiple antibiotic resistance) / Expression, oxyR (Oxidative stress) / Expression, phoP (Envelope stress) / Expression, phoQ (Envelope stress) / Expression, recA (SOS response) / Expression, rpoE (Envelope stress) / Expression, rpoS (Sigma S response) / Expression, umuC (SOS response): normalized to arcA, mdoG, tus, Pexiganan 16, Melittin 16, Kanamycin 16, Ciprofloxacin 0.5, Lysozyme 128, Ampicillin 32 μg/ml, three biological replicates; on Result, cpxR: key: NDE: non-differentially expressed, p-value ≥ 0,05; UP: upregulated, p-value ≤ 0,05; DOWN: downregulated, p-value ≤ 0,05; on Result, oxyR: key: NDE: non-differentially expressed, p-value ≥ 0,05; UP: upregulated, p-value ≤ 0,05; DOWN: downregulated, p-value ≤ 0,05; on Result, rpoE: key: NDE: non-differentially expressed, p-value ≥ 0,05; UP: upregulated, p-value ≤ 0,05; DOWN: downregulated, p-value ≤ 0,05
Procedure: Preparation of each of the six treatments and the control samples was carried out by two operators on three consecutive days, thereby comprising three biological replicates for each of the six experimental and one control groups. To obtain the starting material for the experiment, a fresh bacterial culture was grown from a glycerol stock on Mueller-Hinton (MH) agar plates at 37°C for 18–24 hours. One well-isolated colony per biological replicate was used to inoculate 2 ml of liquid MH (Sigma) in a 10 ml sterile polypropylene tube and incubated at 37°C for 16 hours with mild shaking. The overnight (ON) culture was then diluted 1∶100 in MH, subdivided into seven 10 ml aliquots and incubated in 50 ml-Falcon tubes at 37°C for 2.5 hours at 220 rpm. When the OD600 of bacterial cultures reached 0.5–0.7, respective antibiotics and AMPs were added to a concentration to match with those used in the mutagenesis experiments. These bacterial cultures were incubated for 20 minutes at 37°C with gentle shaking. Two ml of bacterial cultures from each treatment and the control were collected, immediately centrifuged at 10000 g for 2 minutes and the supernatant was removed to stop the treatment. The bacterial pellet was then resuspended in 1 ml MH, followed by an addition of 1 ml of RNAprotect Bacteria Reagent (Qiagen), 5 minutes incubation and centrifugation at 10000 g for 2 minutes at room temperature. The supernatant was discarded and the bacterial pellet was immediately frozen and stored at −80°C until RNA extraction.
Total RNA was isolated using RNeasy kit (Qiagen) according to the manufacturer's instructions and eluted in 50 µl of RNase-free water. The nucleic acid yield and purity were determined by measuring the optical density at A260/280 using a Nanodrop spectrophotometer (Thermo Scientific). RNA samples were treated with TURBO DNase (Life Technologies). Briefly, ten µg of RNA were used in a total volume of 500 µl containing 20 units of TURBO DNase, incubated for 30 minutes at 37°C, immediately followed by RNeasy (Qiagen) cleanup and elution in 30 µl of RNase-free water. Following DNase treatment, RNA integrity was assessed using Agilent RNA 6000 Nano kit and 2100 Bioanalyzer instrument (both Agilent Technologies).
High-Capacity cDNA Reverse Transcription Kit with RNase Inhibitor (Applied Biosystems) was used for cDNA synthesis. Initially, to ensure linear conversion of the transcripts, the dynamic range of reverse transcription reaction was tested by performing a standard curve with cDNA, synthesised using various input amounts of pooled RNA. Total RNA (250 ng per reaction) and random primers were used for cDNA synthesis. To obtain sufficient amount of cDNA, several batches of 20 µl RT reactions were pooled, diluted 50-fold with RNase-free water and stored in single-use aliquots at −80°C until further use. All 21 samples were tested for presence of contaminating genomic DNA by running the mdoG assay with cDNA and the respective no reverse transcription (−RT) controls.
Escherichia coli strain K-12 substrain MG1655 complete genome (accession U00096) sequence was downloaded from NCBI database (www.ncbi.nlm.nih.gov) and used for primer design. Target sequence accession number, location of the amplicon, amplicon length and primer sequences for each assay can be found in table S2. Primers were designed using Primer Express software (Applied Biosystems) and optimized for annealing temperature of 60°C. Each primer pair and amplicon were checked for secondary structure formation using Oligo Tool (Integrated DNA technologies, http://eu.idtdna.com/analyzer/Applications/OligoAnalyzer/).

[4] = system: E. coli stress response genes; conditions: cited from earlier work
[5] = Escherichia coli, read-out: MIC50
[6] = ampicillin 5 μg/ml, 120 min, ref Kohanski,2007
[7] = norfloxacin 250 ng/ml, 30 min, ref Kohanski,2007
[8] = norfloxacin 250 ng/ml, 60 min, ref Kohanski,2007
[9] = norfloxacin 15 μg/ml, 20 min, gyrA+/parCr, ref Peter,2004
[10] = norfloxacin 15 μg/ml, 30min, gyrAr/parCCr cells, ref Peter,2004

Molecule | MIC50 [2, 5] [µg/mL] | Result, cpxA [3] | Result, cpxR [3] | Result, dinB [3] | Result, lexA [3] | Result, marR [3] | Result, oxyR [3] | Result, phoP [3] | Result, phoQ [3] | Expression, cpxA (Envelope stress) [3] | Expression, cpxR (Envelope stress) [3] | Expression, dinB (SOS response) [3] | Expression, lexA (SOS response) [3] | Expression, oxyR (Oxidative stress) [3] | Expression, phoP (Envelope stress) [3] | Expression, phoQ (Envelope stress) [3] | Expression, recA (SOS response) [3] | Expression, rpoE (Envelope stress) [3] | Expression, rpoS (Sigma S response) [3] | Expression, umuC (SOS response) [3] | further results
CC1(C)S[C@@H]2[C@H](NC(=O)[C@H](N)c3ccccc3)C(=O)N2[C@H]1C(=O)O [Ampicillin] | 3.2 | NDE | NDE | NDE | NDE | UP (2.5-fold) | NDE | NDE | NDE | 1.083 | 0.988 | 1.623 | 1.563 | 0.923 | 1.026 | 0.96 | 1.627 | 0.815 | 1.31 | 1.373 | MIC ([1]; Escherichia coli, read-out: MIC): 4 µg/mL (≈ 11.4 µM); Expression, marR (Independent multiple antibiotic resistance) [3]: 2.498; expression, lexA (microarray database) [4, 6]: 2.143; expression, marR (microarray database) [4, 6]: 4.064; expression, phoP (microarray database) [4, 6]: -2.302; expression, rpoS (microarray database) [4, 6]: -2.26; expression, rpoE (microarray database) ([4]; ampicillin 25 μg/ml, 30 min, ref Shaw,2003): -4.545
O=C(O)c1cn(C2CC2)c2cc(N3CCNCC3)c(F)cc2c1=O [Ciprofloxacin] | 0.05 | DOWN (2.25-fold) | NDE | UP (14.2-fold) | UP (10.5-fold) | DOWN (5.35-fold) | NDE | NDE | NDE | 0.443 | 0.425 | 14.157 | 10.527 | 3.552 | 0.655 | 0.48 | 66.583 | 0.391 | 0.479 | 11.255 | fold downregulation, cpxA ([3]; 20 minutes exposure): 2.25 fold; fold downregulation, marR ([3]; 20 minutes exposure): 5.35 fold; fold downregulation, rpoS ([3]; 20 minutes exposure): 2.08 fold; fold upregulation, dinB ([3]; 20 minutes exposure): 14.2 fold; fold upregulation, lexA ([3]; 20 minutes exposure): 10.5 fold; fold upregulation, recA ([3]; 20 minutes exposure): 66.6 fold; fold upregulation, umuC ([3]; 20 minutes exposure): 11.26 fold; Result, recA [3]: UP (66.6-fold); Result, rpoE [3]: NDE; Result, rpoS [3]: DOWN (2.08-fold); Result, umuC [3]: UP (11.26-fold)
CC[C@H](C)[C@H](NC(=O)[C@H](CCCCN)NC(=O)[C@H](CCC(=O)O)NC(=O)[C@H](CCCCN)NC(=O)[C@H](CO)NC(=O)[C@H](CCCCN)NC(=O)[C@H](CCCNC(=N)N)NC(=O)[C@H](Cc1ccccc1)NC(=O)[C@H](Cc1ccccc1)NC(=O)[C@H](CC(=O)O)NC(=O)CNC(=O)[C@H](CC(C)C)NC(=O)[C@@H](N)CC(C)C)C(=O)NCC(=O)N[C@@H](CCCCN)C(=O)N[C@@H](CCC(=O)O)C(=O)N[C@@H](Cc1ccccc1)C(=O)N[C@@H](CCCCN)C(=O)N[C@@H](CCCNC(=N)N)C(=O)N[C@H](C(=O)N[C@H](C(=O)N[C@@H](CCC(N)=O)C(=O)N[C@@H](CCCNC(=N)N)C(=O)N[C@H](C(=O)N[C@@H](CCCCN)C(=O)N[C@@H](CC(=O)O)C(=O)N[C@@H](Cc1ccccc1)C(=O)N[C@@H](CC(C)C)C(=O)N[C@@H](CCCNC(=N)N)C(=O)N[C@@H](CC(N)=O)C(=O)N[C@@H](CC(C)C)C(=O)N[C@H](C(=O)N1CCC[C@H]1C(=O)N[C@@H](CCCNC(=N)N)C(=O)N[C@H](C(=O)N[C@@H](CCC(=O)O)C(=O)N[C@@H](CO)C(=O)O)[C@@H](C)O)C(C)C)[C@@H](C)CC)C(C)C)[C@@H](C)CC [LL-37] |  |  |  |  |  |  |  |  |  |  |  |  |  |  |  |  |  |  |  |  | MIC50 [2]: 8 µg/mL
CCn1cc(C(=O)O)c(=O)c2cc(F)c(N3CCNCC3)cc21 [norfloxacin] |  |  |  |  |  |  |  |  |  |  |  |  |  |  |  |  |  |  |  |  | expression, recA (microarray database) ([4]; norfloxacin 0.12 μg/ml, 30 min, ref Shaw,2003): 11.1; expression, rpoE (microarray database) [4, 7]: -2.308; expression, rpoS (microarray database) [4, 7]: -2.24; expression, cpxR (microarray database) [4, 8]: -2.588; expression, phoP (microarray database) [4, 8]: -2.179; expression, phoQ (microarray database) ([4]; norfloxacin 15 μg/ml, 4 min, gyrA+/parC+, ref Peter,2004): -2.778; expression, cpxA (microarray database) ([4]; norfloxacin 15 μg/ml, 10 min, gyrA+/parCr, ref Peter,2004): -2.439; expression, dinB (microarray database) [4, 9]: 2.57; expression, oxyR (microarray database) [4, 9]: 4.05; expression, lexA (microarray database) [4, 10]: 5; expression, umuC (microarray database) [4, 10]: 8.421; expression, marR (microarray database) ([4]; norfloxacin (30min) / spectinmycin, 250 ng/ml, 30 min, spectinomycin (400 μg/ml), ref Kohanski,2007): -3.206
Human lysozyme: human lysozyme obtained from Sigma |  | NDE | NDE | NDE | NDE | NDE | NDE | NDE | NDE | 0.902 | 0.908 | 1.116 | 1.18 | 1.334 | 0.794 | 0.667 | 1.27 | 0.784 | 0.899 | 1.056 | MIC [1]: 20 µg/mL; MIC50 [2]: 12.8 µg/mL; Result, recA [3]: NDE; Result, rpoE [3]: NDE; Result, rpoS [3]: NDE; Result, umuC [3]: NDE; Expression, marR (Independent multiple antibiotic resistance) [3]: 0.633
